Measurements taken from ChEMBL document CHEMBL5385856, “Novel 1,4,5,6-tetrahydrocyclopenta[d]imidazole-5-carboxamide-based JNK3 inhibitors: Design, synthesis, molecular docking, and therapeutic potential in neurodegenerative diseases” (Eur J Med Chem, 2023).

Test system: Cortical neurone
Experiment: Neuroprotective activity against Abeta42-induced neuronal apoptosis in Sprague-Dawley rat primary cortical neuron cells assessed as cell viability at 20 uM preincubated for 90 mins followed by Abeta42 addition for 24 hrs and measured on day 5 by MTT assay (reference value: 52%)
Type: functional
Conditions: 120 h, time 5 day, read-out: Activity

SMILES: Oc1ccc(/C=C/c2cc(O)cc(O)c2)cc1 [RESVERATROL]
- viability at 20 µM: 84.2%
